# Reference: patent publication US10960005B2, “Treatment of relapsed and/or refractory solid tumors and non-hodgkin's lymphomas” (CELGENE QUANTICEL RESEARCH, INC., priority 2016, dated 2021)
# Where two headings read alike, the source gives them in different places.
# How the values were obtained:
# [1] = test system: NCI-H1417 SCLC xenograft; assay type: in vivo
# [2] = test system: LU2527 lung NEC patient-derived xenograft; test: Efficacy in LU2527 lung neuroendocrine carcinoma PDX model; details: 5 mg base/kg PO QD; Day 46
# [3] = test system: LXFS 1129 SCLC patient-derived xenograft
# [4] = test system: LNCaP cells; test: LNCaP cell proliferation with DHT and irradiation; assay type: cell-based, human; details: 100 nM Compound A + 10 nM DHT + 2Gy irradiation vs DHT with irradiation or DHT with Compound A; 220 hours
# Method: LNCaP cells are androgen-sensitive human prostate adenocarcinoma cells. […] The proliferation of the LNCap cells was monitored for 220 hours.
# [5] = test system: MKL-1 hMCC cells; test: hMCC cell proliferation inhibition (2D, CellTiter-Glo), MKL-1; assay type: cell-based, human; details: MKL-1, 2D format, 7 days
# Method: MKL-1 hMCC cells were cultured in vitro in RPMI-1640 culture medium (Life Technologies, Carlsbad, Calif.) containing 100 units/mL penicdlin G sodium and 100 μg/mL streptomycin sulfate (cRPMI) supplemented with 10% fetal bovine serum (FBS). MS-1 hMCC cells were cultured in vitro in cRPMI supplemented with 20% FBS.
# Four to six replicates were performed at each concentration.
# [6] = Pharmacokinetics after single IV and oral dose, Cynomolgus monkeys; assay type: in vivo; details: Monkey, male
# Method: (§1) AUClast=area under the plasma concentration-time curve from time zero to time of last measurable concentration; Cmax=maximum plasma concentration; F=oral bioavailability; hr=hour, PK=pharmacokinetic; SD=standard deviation; t1/2 z=apparent half-life of the terminal phase of the concentration-time curve; tmax=time of Cmax. In mouse, PK parameters were determined using composite plasma samples obtained from n=3animals/time point. In other species, PK parameters are from n=3 animals and values shown are mean and SD (in parentheses).
# [7] = test system: LXFS 2156 SCLC patient-derived xenograft; test: Efficacy in LXFS 2156 SCLC PDX model; assay type: in vivo, mice; details: 5 mg base/kg orally QD×23
# [8] = Pharmacokinetics after single IV and oral dose, CD-1 mice; assay type: in vivo; details: Mouse, female
# Method: as §1
# [9] = test system: NCI-H69 SCLC cell line; test: Antiproliferative activity, NCI-H69; assay type: cell-based, human; details: 3D assay; Calcein AM
# [10] = 4-week oral gavage toxicity study with 4-week recovery in dogs (QW/BIW); details: for mean AUC0-168 / mean Cmax: 0.375 mg base/kg/dose QW; for Steady state Cmax: 0.75 mg base/kg/dose QW
# [11] = Excretion in bile duct cannulated rats (IV); assay type: in vivo; details: 24-hour period post dosing
# [12] = test system: NCI-H841 SCLC cell line; test: Antiproliferative activity, NCI-H841; assay type: cell-based, human; details: 3D assay; Calcein AM
# [13] = test system: NCI-H1417 SCLC xenograft; details: for Median Tumor Volumes Diff.: Day 0 vs Day 65
# [14] = test system: LNCaP cells; test: LNCaP cell proliferation with rapamycin; assay type: cell-based, human; details: 100 nM Compound A + 100 nM rapamycin vs rapamycin alone; 90 hours
# [15] = test system: H3K4me2 at ST18 and FREM2 gene loci in MKL-1 cells; test: ChIP-seq LSD1 occupancy and H3K4me2 status, MKL-1; assay type: cell-based, human; details: 100 nM, 3 days
# [16] = test system: gene expression (ST18, FREM2) in MKL-1 cells; test: Gene expression modulation (RNA-seq, qRT-PCR) in cultured MKL-1 cells; assay type: cell-based, human; details: 10 and 100 nM, three days
# Method: 22, 66, or 200 nM for qRT-PCR analysis.
# Libraries were sequenced on an Illumina NextSeq® 500 System (Illumina, San Diego, Calif.) using 75 base paired-end RNA sequencing. Sequenced reads were mapped to the hg19 human genome build and differential expression was determined by analysis of variance across all replicates relative to the vehicle control
# Sequenced reads were mapped to the hg19 human genome build using the Spliced Transcripts Alignment to a Reference (STAR) software tool (©Alexander Dobin, 2009-2016) and transcript counts were normalized using the Empirical Analysis of Digital Gene Expression Data in R (edgeR) and Differential gene expression analysis based on the negative binomial distribution (DESeq2) software tools (©Bioconductor, 2003-2017). Differential expression was determined by analysis of variance across all replicates relative to the vehicle control.
# [17] = Compound A monotherapy 5 mg/kg PO 5 on/2 off
# [18] = etoposide 24 mg/kg SC QD×3 followed by Compound A 5 mg/kg PO 5 on/2 off
# [19] = 0.375 mg base/kg/dose BIW, males, Day 22
# [20] = Dogs, Day 1, 0.75 mg base/kg/dose oral once weekly, M
# [21] = Dogs, Day 1, 1.5 mg base/kg/dose oral once weekly, F
# [22] = Dogs, Day 1, 1.5 mg base/kg/dose oral once weekly, M
# [23] = Dogs, Day 22, 0.375 mg base/kg/dose oral once weekly, F
# [24] = Dogs, Day 22, 0.375 mg base/kg/dose oral once weekly, M
# [25] = Dogs, Day 22, 0.375 mg base/kg/dose oral twice weekly, M
# [26] = Dogs, Day 22, 0.75 mg base/kg/dose oral once weekly, F
# [27] = Dogs, Day 22, 0.75 mg base/kg/dose oral once weekly, M
# [28] = QW or BIW schedule, not determined
compound,measurement,setting,value
COc1ccc(-c2c(-c3ccc(C#N)c(F)c3)nc(N3CCC(N)CC3)n(C)c2=O)cc1F [Compound A],% TGD,[1]; [17],335%
same,TGD,[1]; [17],87 days
same,median TTE,[1]; [17],113 days
same,% TGD,[1]; [18],435%
same,TGD,[1]; [18],113 days
same,median TTE,[1]; [18],139 days
same,% TGI,[2],84%
same,AUC0-24,[3]; 1.5 mg base/kg,243 ng·h/mL
same,AUC0-24,[3]; 5 mg base/kg,"1,262 ng·hr/mL"
same,mean body weight losses,"[3]; mouse, in vivo",< 6%
same,LNCaP cell proliferation,[4],significantly inhibits LNCaP cell proliferation
same,IC50,[5],0.0184 µM
same,AUC∞,[6]; single IV 1 mg base/kg,983 ng·h/mL
same,CL,[6]; single IV 1 mg base/kg,18 mL/min/kg
same,Vss,[6]; single IV 1 mg base/kg,17.119 L/kg
same,"t1/2,z",[6]; single IV 1 mg base/kg,12.0 h
same,% F,[6]; single oral 5 mg base/kg,82%
same,AUClast,[6]; single oral 5 mg base/kg,3618 ng·h/mL
same,Cmax,[6]; single oral 5 mg base/kg,187 ng/mL
same,"t1/2,z",[6]; single oral 5 mg base/kg,12.9 h
same,tmax,[6]; single oral 5 mg base/kg,6.0 h
same,TGI,[7],−7%
same,AUC∞,[8]; single IV 5 mg base/kg,2664 ng·h/mL
same,CL,[8]; single IV 5 mg base/kg,32 mL/min/kg
same,Vss,[8]; single IV 5 mg base/kg,7.51 L/kg
same,"t1/2,z",[8]; single IV 5 mg base/kg,3.8 h
same,% F,[8]; single oral 10 mg base/kg,38%
same,Cmax,[8]; single oral 10 mg base/kg,510 ng/mL
same,"t1/2,z",[8]; single oral 10 mg base/kg,1.7 h
same,tmax,[8]; single oral 10 mg base/kg,0.5 h
same,IC50,[9],7 µM
same,Cmax,"[10]; 0.375 mg base/kg/dose BIW, females, Day 22",19.0 ng/mL
same,Cmax,[10]; [19],17.7 ng/mL
same,mean AUC0-72,[10]; [19],307 ng·h/mL
same,mean AUC0-168,"[10]; females, Day 22",269 ng·h/mL
same,mean Cmax,"[10]; females, Day 22",15.5 ng/mL
same,mean AUC0-168,"[10]; males, Day 22",384 ng·h/mL
same,mean Cmax,"[10]; males, Day 22",21.9 ng/mL
same,Steady state Cmax,[10]; females,40.8 ng/mL
same,Steady state Cmax,[10]; males,36.2 ng/mL
same,AUC0-168,"[10]; Dogs, Day 1, 0.375 mg base/kg/dose oral once weekly, M",503 ng·h/mL
same,AUC0-72,"[10]; Dogs, Day 1, 0.375 mg base/kg/dose oral twice weekly, M",420 ng·h/mL
same,AUC0-168,"[10]; Dogs, Day 1, 0.75 mg base/kg/dose oral once weekly, F",1180 ng·h/mL
same,AUC0-168,[10]; [20],955 ng·h/mL
same,Cmax,[10]; [20],34 ng/mL
same,AUC0-168,[10]; [21],2680 ng·h/mL
same,Cmax,[10]; [21],80.0 ng/mL
same,AUC0-168,[10]; [22],2530 ng·h/mL
same,Cmax,[10]; [22],90.6 ng/mL
same,AUC0-168,[10]; [23],269 ng·h/mL
same,Cmax,[10]; [23],15.5 ng/mL
same,AUC0-168,[10]; [24],384 ng·h/mL
same,Cmax,[10]; [24],21.9 ng/mL
same,Cmax,"[10]; Dogs, Day 22, 0.375 mg base/kg/dose oral twice weekly, F",19.0 ng/mL
same,AUC0-72,[10]; [25],307 ng·h/mL
same,Cmax,[10]; [25],17.7 ng/mL
same,AUC0-168,[10]; [26],719 ng·h/mL
same,Cmax,[10]; [26],40.8 ng/mL
same,AUC0-168,[10]; [27],645 ng·h/mL
same,Cmax,[10]; [27],36.2 ng/mL
same,HNSTD,[10]; [28],< 0.375 mg base/kg/dose
same,NOAEL,[10]; [28],< 0.375 mg base/kg/dose
same,moribund euthanasia,"[10]; weekly oral 0.375-1.5 mg base/kg/dose, between study Days 13 and 23",11 animals
same,primary toxicities,"[10]; ≥0.375 mg base/kg/dose, QW or BIW","mucosal ulceration, acute and/or subacute inflammation, and mucosal epithelial atrophy ofGI tract tissues"
same,dose excreted intact in urine,[11],8.5 % of dose
same,IC50,[12],> 500 µM
same,mean body weight gain by end of study,[13]; 2.5 mg base/kg,1%
same,Median Tumor Volumes Diff.,[13]; 2.5 mg base/kg PO QD × 65,69.9 mm^3
same,mean body weight gain by end of study,[13]; 5 mg base/kg,7.5%
same,Median Tumor Volumes Diff.,[13]; 5 mg base/kg PO QD × 65,92.3 mm^3
same,LNCaP cell proliferation,[14],greater inhibition of LNCap cell proliferaton
same,H3K4me2 at the LSD1 binding site of FREM2 gene,[15],increased H3K4me2
same,H3K4me2 at the LSD1 binding site of ST18 gene,[15],increased H3K4me2
same,ST18 and FREM2 gene expression changes (upregulated),[16],at least 2 fold
